Test results reported in patent EP3048104A1, “AMORPHOUS AND CRYSTALLINE FORMS OF IDELALISIB AND PROCESS FOR FORMING THE SAME” (Sandoz AG, priority 2015, dated 2016).
Converted amounts (≈) assume the structure as drawn.

Columns and labels:
[1] = Thermal and humidity stability (XRPD analysis); format: physicochemical
Protocol: XRPD diffractograms were obtained with an X'Pert PRO diffractometer (PANalytical, Almelo, The Netherlands) equipped with a theta/theta coupled goniometer in transmission geometry, programmable XYZ stage with well plate holder, Cu K-alpha radiation source (wavelength 0.15418 nm) with a focusing mirror, a 0.5° divergence slit, a 0.02° soller slit collimator and a 0.5° anti-scattering slit on the incident beam side, a 2 mm anti-scattering slit, a 0.02° soller slit collimator, a Ni-filter and a solid state PIXcel detector on the diffracted beam side. The diffractogram was recorded at room temperature (25°C) at a tube voltage of 40 kV, tube current of 40 mA, applying a step size of 0.013° 2-Theta with 40 sec per step in the angular range of 2° to 40° 2-Theta. A typical precision of the 2-Theta values is in the range of ± 0.2° 2-Theta. Thus, a diffraction peak that appears for example at 9.4° 2-Theta can appear between 9.2 and 9.6° 2-theta on most X-ray diffractometers under standard conditions. 50 mg of pure amorphous idelalisib obtained as disclosed in Example 4b) were exposed to 98% relative humidity at 25°C for 5 days. […] 50 mg of pure amorphous idelalisib obtained as disclosed in Example 4b) were exposed to 75% relative humidity at 40°C for 5 days. […] 50 mg of pure amorphous idelalisib obtained as disclosed in Example 4b) were thermally stressed at 120°C and 50% relative humidity for 5 days in a sealed vial.

[2] = Compression stability (KBr pellet die, XRPD analysis); format: physicochemical; conditions: compressed for 4.5 days at 740 MPa
Protocol: XRPD diffractograms were obtained with an X'Pert PRO diffractometer (PANalytical, Almelo, The Netherlands) equipped with a theta/theta coupled goniometer in transmission geometry, programmable XYZ stage with well plate holder, Cu K-alpha radiation source (wavelength 0.15418 nm) with a focusing mirror, a 0.5° divergence slit, a 0.02° soller slit collimator and a 0.5° anti-scattering slit on the incident beam side, a 2 mm anti-scattering slit, a 0.02° soller slit collimator, a Ni-filter and a solid state PIXcel detector on the diffracted beam side. The diffractogram was recorded at room temperature (25°C) at a tube voltage of 40 kV, tube current of 40 mA, applying a step size of 0.013° 2-Theta with 40 sec per step in the angular range of 2° to 40° 2-Theta. A typical precision of the 2-Theta values is in the range of ± 0.2° 2-Theta. Thus, a diffraction peak that appears for example at 9.4° 2-Theta can appear between 9.2 and 9.6° 2-theta on most X-ray diffractometers under standard conditions. 50 mg of pure amorphous idelalisib obtained as disclosed in Example 4b) were added to a KBr pellet die and compressed for 4.5 days at 740 MPa.

[3] = Solubility in water at 25°C; format: physicochemical
[4] = pressure conditions typical for tablet preparation; cited from earlier work
[5] = Solubility at pH 6.8; format: physicochemical; conditions: pH 6.8, aqueous buffer
Protocol: The solubility of Forms I and II of idelalisib is very low. At pH 6.8 a solubility of about 70 mg/L was measured.

Structure (SMILES)	change of the amorphous form by XRPD after storage ([1]; 75% relative humidity at 40°C for 5 days)	change of the amorphous form by XRPD after storage ([1]; 98% relative humidity at 25°C for 5 days)	change of the amorphous form by XRPD after storage ([1]; 120°C and 50% relative humidity for 5 days in a sealed vial)	change in the amorphous phase by XRPD after compression [2]	solubility [3] [µg/mL]	phase conversion under pressure [4]	solubility [5] [µg/mL]
CC[C@H](Nc1ncnc2[nH]cnc12)c1nc2cccc(F)c2c(=O)n1-c1ccccc1 [pure amorphous idelalisib, (S)-2-(1-(9H-purin-6-ylamino)propyl)-5-fluoro-3-phenylquinazolin-4(3H)-one]	no change of the amorphous form	no change of the amorphous form	no change of the amorphous form	no change in the amorphous phase	~415 (≈ 999 µM)	–	–
CC[C@H](Nc1ncnc2[nH]cnc12)c1nc2cccc(F)c2c(=O)n1-c1ccccc1 [Form I, (S)-2-(1-(9H-purin-6-ylamino)propyl)-5-fluoro-3-phenylquinazolin-4(3H)-one]	–	–	–	–	–	easily converts at least partially to Form II	~70 (≈ 168 µM)
